From patent US11149035B2, “Chemical compounds as H—PGDS inhibitors” (GlaxoSmithKline Intellectual Property Development Limited, priority 2017, dated 2021)

Tests used:
[1] = molecular target: T1, haematopoietic prostaglandin D synthase (H-PGDS) (Homo sapiens, UniProt O60760); assay: H-PGDS RapidFire high throughput mass spectrometry assay (conversion of PGH2 to PGD2); format: biochemical; settings: 10 nM H-PGDS, PGH2 formed in situ by COX-2 from arachidonic acid; four parameter curve fit; read-out: Potency Range (mean pIC50) (converted)
T1 construct: Full length human H-PGDS cDNA (Invitrogen Ultimate ORF IOH13026) was amplified by PCR; 6-His (N); TEV protease cleavage site (N); made in house; host or cells: E. coli BL21 (DE3*)
Procedure, shortened: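 His-tagged full-length human H-PGDS from E. coli converts PGH2, generated in situ at ~10 μM from arachidonic acid by FLAG-tagged human COX-2 from Sf9 cells. RapidFire SPE-triple quadrupole MS measures PGD2 against PGF2α as substrate surrogate; percent conversion is calculated.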

[2] = test system: limb muscle injury in male C57Bl/6N mice; assay: In vivo assay for functional response to muscle injury (eccentric contraction-induced muscle fatigue); design: species or system mouse; settings: FIG. 1
Excerpt: Under anesthesia, the right hind limb of a mouse is restrained at the knee and the foot attached to a motorized footplate/force transducer. Needle electrodes are inserted into the upper limb, either side of the sciatic nerve and a current sufficient to elicit a maximal muscle contraction is applied. Muscle tension is produced by moving the footplate to lengthen the plantarflexor muscles while the limb is under maximal stimulation. This is repeated 60 times to fatigue the muscles of the lower limb. Anesthesia, limb immobilization and limb stimulation are then repeated at regular intervals to measure maximal isometric force in the recovering limb. 7 to 9 animals are tested for each test condition.

T1 sequence (O60760 whole entry): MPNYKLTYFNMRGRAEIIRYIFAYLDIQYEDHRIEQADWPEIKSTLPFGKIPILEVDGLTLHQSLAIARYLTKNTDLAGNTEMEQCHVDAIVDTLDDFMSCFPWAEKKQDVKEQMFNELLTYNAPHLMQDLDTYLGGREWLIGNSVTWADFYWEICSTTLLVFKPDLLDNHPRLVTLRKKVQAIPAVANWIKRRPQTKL

For CC(C)(O)[C@H]1CC[C@H](NC(=O)c2cnc3nc(C4CC4)ccc3c2)CC1 [Example 21, 7-Cyclopropyl-N-((trans)-4-(2-hydroxypropan-2-yl)cyclohexyl)-1,8-naphthyridine-3-carboxamide], the IC50 [1] was < 10 nM, the “kinetics of recovery of maximal isometric force after injury” value ([2]; PO 3 and 10 mg/kg QD beginning 10 min prior to eccentric contraction challenge) was “acceleration in the kinetics of recovery” and the “initial magnitude of the injury (isometric limb force 24 hours following protocol initiation)” value ([2]; PO 3 and 10 mg/kg QD, 24 hours) was “reduced the initial magnitude of the injury”.
